Results as given in ChEMBL document CHEMBL5046292, “Resveratrol-Based MTDLs to Stimulate Defensive and Regenerative Pathways and Block Early Events in Neurodegenerative Cascades” (J Med Chem, 2022).
Activity calls are given as the source filed them. The rule behind the calls is not given here.

Experiments:
[1] = (§1) Cytotoxicity against human SH-SY5Y cells assessed as cell viability at 100 uM incubated for 24 hrs by MTT assay; format: toxicity, cell-based; settings: SH-SY5Y cells, read-out: Activity
[2] = molecular target: T1, Nuclear factor erythroid 2-related factor 2 (Homo sapiens) (UniProt Q16236); settings: Arec32, time 24.0 hrs
T1 sequence (whole entry): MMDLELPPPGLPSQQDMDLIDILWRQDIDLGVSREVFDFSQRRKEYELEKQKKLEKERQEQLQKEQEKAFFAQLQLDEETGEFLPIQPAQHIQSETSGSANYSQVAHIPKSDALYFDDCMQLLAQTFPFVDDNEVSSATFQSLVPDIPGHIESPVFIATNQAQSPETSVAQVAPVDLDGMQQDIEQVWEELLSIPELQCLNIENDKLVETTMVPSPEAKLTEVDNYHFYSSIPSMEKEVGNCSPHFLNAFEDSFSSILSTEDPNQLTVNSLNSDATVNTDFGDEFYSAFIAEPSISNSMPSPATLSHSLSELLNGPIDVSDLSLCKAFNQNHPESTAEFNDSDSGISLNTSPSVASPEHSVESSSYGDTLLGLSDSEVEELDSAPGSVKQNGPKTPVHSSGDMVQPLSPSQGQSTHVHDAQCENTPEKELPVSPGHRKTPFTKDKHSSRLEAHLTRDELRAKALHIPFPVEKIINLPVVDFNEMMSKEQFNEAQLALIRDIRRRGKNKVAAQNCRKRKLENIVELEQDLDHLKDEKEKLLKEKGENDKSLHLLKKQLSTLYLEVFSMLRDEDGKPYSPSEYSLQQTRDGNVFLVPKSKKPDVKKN

SH-SY5Y = assay: as §1; format: toxicity, cell-based; settings: sh-sy5y, 24 h, 100 µM
Hippocampal neurone [3] = assay: Induction of neurogenesis in C57BL/6 mouse hippocampus neurospheres assessed as upregulation of MAP-2 by confocal microscopic analysis; format: functional, cell-based
Hippocampal neurone [4] = assay: Induction of neurogenesis in C57BL/6 mouse hippocampus neurospheres assessed as upregulation of TuJ-1 by confocal microscopic analysis; format: functional, cell-based
Hippocampal neurone [5] = assay: Induction of neurogenesis in C57BL/6 mouse assessed as increase in cell migration distance by confocal microscopic analysis; format: functional, cell-based
[6] = molecular target: T2, Amine oxidase [flavin-containing] B (Homo sapiens, UniProt P27338); assay: Inhibition of human recombinant MAO-B at 2 microM preincubated upto 30 mins using tyramine as substrate by fluorescence assay relative to control; settings: TDE = time-dependent effect
T2 sequence (P27338 whole entry): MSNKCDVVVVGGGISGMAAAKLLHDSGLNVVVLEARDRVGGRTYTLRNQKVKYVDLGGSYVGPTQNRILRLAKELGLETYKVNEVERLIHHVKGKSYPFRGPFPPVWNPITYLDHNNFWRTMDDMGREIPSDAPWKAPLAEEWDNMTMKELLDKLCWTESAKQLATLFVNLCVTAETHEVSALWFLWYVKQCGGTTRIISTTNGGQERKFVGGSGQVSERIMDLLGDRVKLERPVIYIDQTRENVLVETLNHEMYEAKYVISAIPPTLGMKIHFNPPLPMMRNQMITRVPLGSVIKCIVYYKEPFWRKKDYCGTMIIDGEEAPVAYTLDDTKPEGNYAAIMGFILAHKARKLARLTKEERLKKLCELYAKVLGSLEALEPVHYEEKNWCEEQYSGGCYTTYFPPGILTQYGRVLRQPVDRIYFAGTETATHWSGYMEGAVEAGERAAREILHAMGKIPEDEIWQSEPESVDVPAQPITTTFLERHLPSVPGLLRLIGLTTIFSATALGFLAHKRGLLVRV

in vitro = settings: PAMPA, pH 7.4
Description: Permeability of compound in PBS buffer at pH 7.4 by PAMPA-BBB assay

Hippocampus [7] = assay: Neuroprotective activity in okadaic acid-induced toxicity in C57BL/6J mouse hippocampus slice assessed as cell viability at 1 uM measured after 6 hrs by MTT assay; format: functional, tissue-based
Hippocampus [8] = assay: Neuroprotective activity in okadaic acid-induced toxicity in C57BL/6J mouse hippocampus slice assessed reduction in ROS level at 1 uM after 6 hrs by H2DCFDA probe based fluorescence analysis; format: functional, tissue-based
Hippocampus [9] = assay: Down regulation of okadaic acid induced p65 expression in C57BL/6J mouse hippocampus slice at 1 uM by Western blotting analysis; format: functional, tissue-based
Hippocampus [10] = assay: Down regulation of okadaic acid-induced inducible nitric oxide synthase expression in C57BL/6J mouse hippocampus slice at 1 uM by Western blotting analysis; format: functional, tissue-based
[11] = molecular target: T2, Amine oxidase [flavin-containing] B; assay: Inhibition of human recombinant MAO-B at 15 microM preincubated upto 30 mins using tyramine as substrate by fluorescence assay relative to control; settings: TDE = time-dependent effect
Hippocampus [12] = assay: Down regulation of okadaic acid induced HO-1 expression in C57BL/6J mouse hippocampus slice at 1 uM by Western blotting analysis; format: functional, tissue-based
[13] = GSH reactivity in presence glutathione-S-transferas by HPLC-MS analysis; format: physicochemical
Hippocampus [14] = assay: Neuroprotective activity in okadaic acid-induced toxicity in C57BL/6J mouse hippocampus slice assessed cell death at 1 uM after 6 hrs by propidium iodide staining; format: functional, tissue-based

With `Oc1ccc(/C=C/c2cc(O)cc(O)c2)cc1` [RESVERATROL] as the compound, how does the viability at 24 h, 100 µM [1] read?
The viability at 24 h, 100 µM was 50%.

With `O=c1[nH]nc(/C=C/c2ccc3c(c2)OCO3)o1` as the compound, how does the CD [2] read?
The CD was greater than 60 µM.

Which Activity (SH-SY5Y) does the source give for `O=c1[nH]nc(/C=C/c2ccc(O)c(O)c2)o1` here?
The Activity was “Non-Toxic”.

Which Activity (Hippocampal neurone [3]) does the source give for `COc1cccc(/C=C/c2n[nH]c(=O)o2)c1` here?
Its Activity is “Active”.

What about the CD [2] of the same compound?
Its CD is greater than 60 µM.

And the Activity (Hippocampal neurone [4])?
Its Activity is “Active”.

And the Activity (Hippocampal neurone [5])?
The Activity was “Active”.

With `O=c1[nH]nc(/C=C/c2cccc([N+](=O)[O-])c2)o1` as the compound, how does the Activity (Hippocampal neurone [3]) read?
Its Activity is “Active”.

And the Activity [6]?
The Activity was “Tde”.

What about the Activity (Hippocampal neurone [4]) of the same compound?
Its Activity is “Active”.

And the Activity (Hippocampal neurone [5])?
Its Activity is “Active”.

For `O=c1[nH]nc(/C=C/c2cc(O)cc(O)c2)o1`, which CD [2] is on record?
Its CD is greater than 60 µM.

What about the Papp (in vitro) of the same compound?
The Papp was no more than 0.1 ×10⁻⁶ cm/s.

Which CD [2] does the source give for `COc1ccc(/C=C/c2n[nH]c(=O)o2)cc1` here?
The CD was greater than 60 µM.

For `C#CCNC/C=C/c1ccc(O)c(OC)c1`, which Activity (SH-SY5Y) is on record?
Its Activity is “Non-Toxic”.

What does the source list for `C#CCNC(=O)/C=C/c1ccc(O)c(OC)c1`?
CD [2]: > 60 µM; Papp (in vitro): ≤ 0.5 ×10⁻⁶ cm/s

With `C#CCNC(=O)/C=C/c1cccc(C#N)c1` as the compound, how does the CD [2] read?
The CD was greater than 60 µM.

For `C#CCn1nc(/C=C/c2ccccc2)oc1=O`, which viability at 24 h, 100 µM [1] is on record?
The viability at 24 h, 100 µM was 30%.

What does the source list for `C#CCNC(=O)/C=C/c1ccc(O)c(O)c1`?
Papp (in vitro): ≤ 0.4 ×10⁻⁶ cm/s; Activity (SH-SY5Y): Non-Toxic

For `COc1cc(/C=C/c2n[nH]c(=O)o2)cc(OC)c1OC`, which Papp (in vitro) is on record?
Its Papp is no more than 0.5 ×10⁻⁶ cm/s.

Which Papp (in vitro) does the source give for `O=c1[nH]nc(/C=C/c2ccc(O)cc2)o1` here?
Its Papp is no more than 0.7 ×10⁻⁶ cm/s.

What about the Activity (SH-SY5Y) of the same compound?
The Activity was “Non-Toxic”.

For `O=c1[nH]nc(/C=C/c2cccc(O)c2)o1`, which Activity (Hippocampal neurone [3]) is on record?
The Activity was “Active”.

And the CD [2]?
Its CD is greater than 60 µM.

What about the Papp (in vitro) of the same compound?
Its Papp is no more than 0.5 ×10⁻⁶ cm/s.

What about the Activity (Hippocampal neurone [4]) of the same compound?
The Activity was “Active”.

And the Activity (Hippocampal neurone [5])?
The Activity was “Active”.

Which Activity (Hippocampus [7]) does the source give for `C#CCn1nc(/C=C/c2ccc(OC)cc2)oc1=O` here?
Its Activity is “Active”.

And the Activity (Hippocampus [8])?
Its Activity is “Active”.

What about the Activity (Hippocampal neurone [3]) of the same compound?
The Activity was “Active”.

What about the Activity (Hippocampus [9]) of the same compound?
Its Activity is “Active”.

What about the Activity (Hippocampus [10]) of the same compound?
Its Activity is “Active”.

What about the Activity [11] of the same compound?
Its Activity is “Tde”.

And the Activity (Hippocampus [12])?
Its Activity is “inactive”.

And the Activity (SH-SY5Y)?
The Activity was “Non-Toxic”.

And the Activity (Hippocampal neurone [4])?
Its Activity is “Active”.

What about the Activity [13] of the same compound?
The Activity was “Not Active”.

What about the Activity (Hippocampus [14]) of the same compound?
The Activity was “Active”.

What about the Activity (Hippocampal neurone [5]) of the same compound?
The Activity was “Active”.

Which CD [2] does the source give for `COc1ccc(/C=C/c2n[nH]c(=O)o2)cc1OC` here?
Its CD is greater than 60 µM.

Which CD [2] does the source give for `C#CCNC(=O)/C=C/c1ccc(O)cc1` here?
The CD was greater than 60 µM.

What does the source list for `C#CCn1nc(/C=C/c2cccc(OC)c2)oc1=O`?
Activity (Hippocampal neurone [3]): Active; Activity (SH-SY5Y): Non-Toxic; Activity (Hippocampal neurone [4]): Active; Activity (Hippocampal neurone [5]): Active
